Target: human recombinant GABAA α5β3γ2 receptor (Homo sapiens (Human), UniProt P18507+P31644)
Test: Radioligand ([3H]Ro151788) receptor binding assay
Conditions: membranes of HEK cells expressing human recombinant GABAA α5β3γ2; 0.5 nM [3H]Ro151788; 60 minutes at 4° C.; read-out: hGABAA α5 Ki
Procedure: The GABAA α5β3γ2 protein used for the receptor binding assay was derived from membranes produced from HEK cells (Millipore CYL3073) expressing the human recombinant GABAA α5β3γ2 receptor. Cells were stored and cultured in-house according to the instructions provided by the vendor (Millipore). Cell pellet was homogenized in 10 times modified Krebs Henseleit buffer (membrane preparation buffer): 20 mM Tris, 120 mM NaCl, 100 mM KCl, 25 mM CaCl2 and 25 mM MgCl2 pH=7.4 at 4° C. using Ultra Turrax (Janke&Kunkel) maximal speed for 15 seconds. The homogenate was centrifuged at 40,000 g for 30 minutes at 4° C. Supernatant was discarded and the resulting pellet was washed in membrane preparation buffer. Pellet was resuspended in membrane preparation buffer and aliquots of 1.4 mL ampules were stored at −70° C. until use.
Receptor binding assays were performed in 96-well format in deep-well plates. For each 96-well plate one ampule of membrane homogenate was thawed and diluted in binding buffer (50 mM Tris pH=7.4, 100 mM KCl) and 200 μL was dispensed into each well. Radioligand [^3H]Ro151788 (Perkin Elmer: NET757250UC) was prepared in binding buffer and added to each well in 50 μL volume to give final concentration of 0.5 nM. Test compounds in suitable concentration(s) were added in additional 50 μL. The final assay volume was 300 μL. Incubation was carried out for 60 minutes at 4° C. For non-specific binding 10 μM unlabeled diazepam was used. After incubation samples were filtered over UniFilter® GF/BT using Filtermate Harvester (Perkin Elmer) and washed with 5×1 mL binding buffer. The plate was dried at 40° C. for an hour and 40 μL Microscint (Perkin Elmer) scintillation cocktail was added to each well. The plate was read in Microbeta (Perkin Elmer).
The specific radioligand binding (SB) was defined as the difference between total binding (Tot) and the non-specific binding (NSB). Results are expressed as a percent inhibition of specific binding obtained in the presence of compound of interest.
For IC50 and Ki determination a minimum of six drug concentrations in triplicate were used. IC50 values (i.e. concentration of compound giving 50% inhibition of specific binding) were calculated from concentration-displacement curves by sigmoidal fitting using Origin 7.5 software. Ki values (i.e. inhibition constants) were calculated using the Cheng-Prusoff equation Ki=IC50/[1+(L/KD)], where [L] is the radioligand concentration and KD the affinity of the labelled ligand for receptor. KD was determined from the Saturation analyses.

Sequence of human recombinant GABAA α5β3γ2 receptor (P31644 32-462): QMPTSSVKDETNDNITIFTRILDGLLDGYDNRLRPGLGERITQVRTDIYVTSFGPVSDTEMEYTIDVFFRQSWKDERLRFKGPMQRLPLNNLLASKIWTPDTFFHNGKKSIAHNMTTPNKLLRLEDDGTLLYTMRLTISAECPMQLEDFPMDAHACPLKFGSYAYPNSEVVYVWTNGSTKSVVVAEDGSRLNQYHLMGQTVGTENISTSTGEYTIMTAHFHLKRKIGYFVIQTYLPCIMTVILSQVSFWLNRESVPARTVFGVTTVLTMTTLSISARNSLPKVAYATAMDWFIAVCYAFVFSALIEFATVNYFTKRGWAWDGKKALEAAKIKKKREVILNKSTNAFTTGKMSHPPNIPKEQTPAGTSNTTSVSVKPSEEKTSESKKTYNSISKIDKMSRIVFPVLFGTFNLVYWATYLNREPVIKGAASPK
Sequence of human recombinant GABAA α5β3γ2 receptor (P28472 26-473 partner): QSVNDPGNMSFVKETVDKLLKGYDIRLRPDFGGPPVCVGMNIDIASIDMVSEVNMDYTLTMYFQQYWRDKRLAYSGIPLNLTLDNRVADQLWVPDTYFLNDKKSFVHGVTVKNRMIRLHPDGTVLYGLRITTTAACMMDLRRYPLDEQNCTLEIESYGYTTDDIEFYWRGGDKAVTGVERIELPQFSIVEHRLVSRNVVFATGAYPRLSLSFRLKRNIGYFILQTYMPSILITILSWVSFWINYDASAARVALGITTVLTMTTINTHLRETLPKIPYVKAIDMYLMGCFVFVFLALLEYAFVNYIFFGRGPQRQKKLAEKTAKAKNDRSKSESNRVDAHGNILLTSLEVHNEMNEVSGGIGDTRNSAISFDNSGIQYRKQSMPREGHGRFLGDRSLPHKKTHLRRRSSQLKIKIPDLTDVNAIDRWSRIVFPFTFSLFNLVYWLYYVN
Sequence of human recombinant GABAA α5β3γ2 receptor (P18507 40-475): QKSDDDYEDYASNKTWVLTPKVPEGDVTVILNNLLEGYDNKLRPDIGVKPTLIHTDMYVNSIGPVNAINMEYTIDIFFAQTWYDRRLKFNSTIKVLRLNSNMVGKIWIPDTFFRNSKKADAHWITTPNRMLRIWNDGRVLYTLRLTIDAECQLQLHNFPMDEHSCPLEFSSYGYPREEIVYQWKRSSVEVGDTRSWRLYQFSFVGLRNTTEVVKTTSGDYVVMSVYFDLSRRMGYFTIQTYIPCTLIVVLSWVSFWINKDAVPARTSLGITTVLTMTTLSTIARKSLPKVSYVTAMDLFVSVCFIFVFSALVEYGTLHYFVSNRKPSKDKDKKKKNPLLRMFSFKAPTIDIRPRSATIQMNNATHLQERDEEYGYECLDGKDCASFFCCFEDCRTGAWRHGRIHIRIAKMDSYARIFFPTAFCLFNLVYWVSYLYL

Ki [nM]	SMILES
1.7	CC(=O)N1CCc2cc(OCc3c(-c4ccc(C)nc4)noc3C)ncc2C1 [Example 1, 1-[6-{[5-methyl-3-(6-methylpyridin-3-yl)-1,2-oxazol-4-yl]methoxy}-3,4-dihydro-2,7-naphthyridin-2(1H)-yl]ethanone]
10	Cc1ccc(-c2noc(C)c2COc2cc3c(cn2)CN(C(=O)c2ccncc2)CC3)cn1 [Example 9, 6-{[5-methyl-3-(6-methylpyridin-3-yl)-1,2-oxazol-4-yl]methoxy}-2-(pyridine-4-carbonyl)-1,2,3,4-tetrahydro-2,7-naphthyridine]
11	Cc1ccc(-c2noc(C)c2COc2cc3c(cn2)CN(C(=O)C2CC(=O)N(C(C)C)C2)CC3)cn1 (stereo not drawn) [Example 16, 4-(6-{[5-methyl-3-(6-methylpyridin-3-yl)-1,2-oxazol-4-yl]methoxy}-1,2,3,4-tetrahydro-2,7-naphthyridine-2-carbonyl)-1-(propan-2-yl)pyrrolidin-2-one]

Second part, the molecule before the results:

SMILES	Ki [nM]
CC(=O)N1CCc2cc(OCc3c(C)nnn3-c3ccc(C(F)F)nc3)ncc2C1 [Example 55, 1-[6-({1-[6-(difluoromethyl)pyridin-3-yl]-4-methyl-1H-1,2,3-triazol-5-yl}methoxy)-3,4 dihydro-2,7-naphthyridin-2(1H)-yl]ethanone]	1.1
Cc1ccc(-n2nnc(C)c2COc2cc3c(cn2)CN(C(=O)C2CC2)CC3)cn1 [Example 44, 2-cyclopropanecarbonyl-6-{[4-methyl-1-(6-methylpyridin-3-yl)-1H-1,2,3-triazol-5-yl]methoxy}-1,2,3,4-tetrahydro-2,7-naphthyridine]	22
Cc1ccc(-c2noc(C)c2COc2cc3c(nn2)CN(C(=O)C2CC2)CC3)cn1 [Example 28, 5-{4-[({7-cyclopropanecarbonyl-5H,6H,7H,8H-pyrido[3,4-c]pyridazin-3-yl}oxy)methyl]-5-methyl-1,2-oxazol-3-yl}-2-methylpyridine]	4.4

— patent US20240067637A1, “NAPHTHYRIDINE AND PYRIDO[3,4-c]PYRIDAZINE DERIVATIVES AS GABAA ALPHA 5 RECEPTOR MODULATORS” (Richter Gedeon Nyrt., priority 2020, published 2024)
